Assay results published in patent US20070004649A1, “Anti-influenza virus compound comprising biflavonoid-sialic acid glycoside” (The Kitasato Institute, priority 2003, published 2007).
Like-named read-outs stand apart in the source and are kept apart here.

Key:
[1] = biological target: B/Ibaraki/2/85 virus sialidase (Influenza B virus, UniProt P16207); experiment: Inhibitory activity against influenza B/Ibaraki/2/85 virus sialidase (4-MU-NeuAc substrate, HA vaccine as enzyme); assay type: biochemical, influenza virus B/Ibaraki/2/85
Chain of B/Ibaraki/2/85 virus sialidase (P16207 whole entry): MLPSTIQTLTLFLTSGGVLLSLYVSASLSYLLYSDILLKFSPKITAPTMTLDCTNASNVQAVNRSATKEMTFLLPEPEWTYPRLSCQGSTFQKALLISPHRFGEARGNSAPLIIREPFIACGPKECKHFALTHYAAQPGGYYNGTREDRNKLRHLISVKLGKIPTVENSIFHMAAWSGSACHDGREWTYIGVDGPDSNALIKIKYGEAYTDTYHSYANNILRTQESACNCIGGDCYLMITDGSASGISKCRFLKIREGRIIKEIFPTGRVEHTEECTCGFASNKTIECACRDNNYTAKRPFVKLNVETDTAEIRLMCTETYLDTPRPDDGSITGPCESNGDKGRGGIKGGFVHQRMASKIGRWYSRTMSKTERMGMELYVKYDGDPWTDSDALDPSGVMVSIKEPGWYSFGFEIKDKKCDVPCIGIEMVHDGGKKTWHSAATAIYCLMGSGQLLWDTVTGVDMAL

[2] = biological target: A/Guizhou/54/89 virus sialidase (Influenza A virus, UniProt I6UMM5); experiment: Inhibitory activity against influenza A/Guizhou/54/89 virus sialidase (4-MU-NeuAc substrate, HA vaccine as enzyme); assay type: biochemical, influenza virus A/Guizhou/54/89 (H3N2 subtype)
Chain of A/Guizhou/54/89 virus sialidase (I6UMM5 1-469): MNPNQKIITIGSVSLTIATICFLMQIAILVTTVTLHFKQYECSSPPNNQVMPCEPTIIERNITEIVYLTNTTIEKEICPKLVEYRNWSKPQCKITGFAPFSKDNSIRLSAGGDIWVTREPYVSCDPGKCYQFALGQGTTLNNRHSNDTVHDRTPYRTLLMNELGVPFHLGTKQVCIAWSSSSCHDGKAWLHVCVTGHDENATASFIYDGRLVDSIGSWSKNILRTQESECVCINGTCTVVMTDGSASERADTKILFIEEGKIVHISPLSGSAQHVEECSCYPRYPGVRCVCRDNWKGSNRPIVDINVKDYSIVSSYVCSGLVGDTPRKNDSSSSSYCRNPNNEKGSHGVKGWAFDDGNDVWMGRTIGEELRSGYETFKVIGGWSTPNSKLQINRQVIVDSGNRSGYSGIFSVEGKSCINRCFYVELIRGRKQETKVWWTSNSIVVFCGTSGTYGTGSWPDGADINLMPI

[3] = biological target: A/PR/8/34 virus sialidase (Influenza A virus, UniProt P03468); experiment: Inhibitory activity against influenza A/PR/8/34 virus sialidase (4-MU-NeuAc substrate, HA vaccine as enzyme); assay type: biochemical, influenza virus A/PR/8/34 (H1N1 subtype)
Chain of A/PR/8/34 virus sialidase (P03468 whole entry): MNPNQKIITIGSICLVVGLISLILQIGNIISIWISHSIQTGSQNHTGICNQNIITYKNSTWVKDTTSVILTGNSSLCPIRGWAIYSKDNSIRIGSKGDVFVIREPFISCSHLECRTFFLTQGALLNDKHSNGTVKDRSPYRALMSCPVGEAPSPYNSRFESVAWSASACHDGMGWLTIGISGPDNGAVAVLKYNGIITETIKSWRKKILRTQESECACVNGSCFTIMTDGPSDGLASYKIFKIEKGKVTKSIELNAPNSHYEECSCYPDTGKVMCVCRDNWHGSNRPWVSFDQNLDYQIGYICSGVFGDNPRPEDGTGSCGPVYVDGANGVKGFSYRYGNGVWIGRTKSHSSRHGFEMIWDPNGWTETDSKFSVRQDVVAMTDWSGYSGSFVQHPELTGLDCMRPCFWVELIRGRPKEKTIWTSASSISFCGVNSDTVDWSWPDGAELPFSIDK

influenza virus [4] = details: cited from earlier work
influenza virus [5] = details: cited from earlier work; remark: listed apart in the source
[6] = tested on: MDCK (Madin-Darby canine kidney) cells; experiment: Cytotoxicity in non-infected MDCK cells (MTT method); details: 12.5 μg/mL, three days
[7] = final concentration of 10 μg/mL

Molecule: COc1ccc(-c2cc(=O)c3c(O)cc(O[C@]4(C(=O)O)C[C@H](O)[C@@H](NC(C)=O)[C@H]([C@H](O)[C@H](O)CO)O4)c(-c4cc(-c5cc(=O)c6c(O)cc(OC)cc6o5)ccc4OC)c3o2)cc1 (relative stereo) [Sci-Neu-2, (S)-7″-O-(N-acetylneuraminyl)-7,4′,4′″-tri-O-methylamentoflavone]
- melting point: 200 °C (dec.)
- inhibition at 10 µg/mL [1, 7]: 65%
- inhibition at 100 µg/mL ([1]; final concentration of 100 μg/mL): ≥ 80%
- IC50 [2]: 1.15 µM
- inhibition at 1 µg/mL ([2]; final concentration of 1 μg/mL): ~50%
- inhibition at 10 µg/mL [2, 7]: ≥ 80%
- IC50 [3]: 5.74 µM
- inhibition at 10 µg/mL ([3]; even at a final concentration of 10 μg/mL (second sentence of b311), read-out: inhibitory activity against the A/PR/8/34 virus sialidase): ≥ 70%
- inhibition at 10 µg/mL ([3]; read-out: inhibitory activity against the A/PR/8/34 virus sialidase, final concentration of 10 μg/mL (first sentence of b311)): ≥ 80%

Molecule: COc1c(O)cc(O)c2c(=O)cc(-c3ccc(O)cc3)oc12 [F36, 5,7,4′-trihydroxy-8-methoxyflavone]
- anti-influenza virus activity in vivo (influenza virus [4]): has anti-influenza virus activity
- anti-influenza virus activity in vitro (influenza virus [5]): has anti-influenza virus activity

Molecule: COc1cc(O)c2c(=O)cc(-c3ccc(OC)c(-c4c(OC5(C(=O)O)CC(O)C(NC(C)=O)C(C(O)C(O)CO)O5)cc(O)c5c(=O)cc(-c6ccc(OC7(C(=O)O)CC(O)C(NC(C)=O)C(C(O)C(O)CO)O7)cc6)oc45)c3)oc2c1 [Gin-Neu-2-(S), (S)-7″,4′″-di-O-(N-acetylneuraminyl)-7,4′-di-O-methylamentoflavone]
- inhibitory activity against the A/Guizhou/54/89 virus sialidase ([2]; final concentration of 1 μg/mL): about 50%

Molecule: COC(=O)C1(Oc2cc(O)c3c(=O)cc(-c4ccc(O)cc4)oc3c2-c2cc(-c3cc(=O)c4c(O)cc(OC)cc4o3)ccc2OC)CC(OC(C)=O)C(NC(C)=O)C(C(OC(C)=O)C(COC(C)=O)OC(C)=O)O1 [Gin-NeuAc-3, (S)-7,4′-di-O-methyl-7″-O-(1″″-methyl-4″″,7″″,8″″,9″″-tetra-O-acetyl-N-acetylneuraminyl)a mentoflavone]
- inhibitory activity against the A/Guizhou/54/89 virus sialidase ([2]; final concentration of 1 μg/mL): about 50%

Molecule: COC(=O)C1(Oc2ccc(-c3cc(=O)c4c(O)cc(OC5(C(=O)OC)C[C@H](OC(C)=O)[C@@H](NC(C)=O)[C@H]([C@H](OC(C)=O)[C@@H](COC(C)=O)OC(C)=O)O5)c(-c5cc(-c6cc(=O)c7c(O)cc(OC)cc7o6)ccc5OC)c4o3)cc2)C[C@H](OC(C)=O)[C@@H](NC(C)=O)[C@H]([C@H](OC(C)=O)[C@@H](COC(C)=O)OC(C)=O)O1 (stereo partly drawn) [Gin-NeuAc-4, (R)-7,4′-di-O-methyl-7″-O-(1″″-methyl-4″″,7″″,8″″,9″″-tetra-O-acetyl-N-acetylneuraminyl)-4′″-O-(1′″″-methyl-4′″″,7′″″,8′″″,9′″″-tetra-O-acetyl-N-acetylneuraminyl)amentoflavone]
- inhibitory activity against the A/Guizhou/54/89 virus sialidase ([2]; final concentration of 1 μg/mL): about 50%

Molecule: COc1cc(O)c2c(=O)cc(-c3ccc(OC)c(-c4c(O)cc(O)c5c(=O)cc(-c6ccc(O)cc6)oc45)c3)oc2c1 [ginkgetin]
- cytotoxicity (cell viability by the MTT method) [6]: showed cytotoxicity

Molecule: COc1ccc(-c2cc(=O)c3c(O)cc(O)c(-c4cc(-c5cc(=O)c6c(O)cc(O)cc6o5)ccc4OC)c3o2)cc1 [isoginkgetin]
- cytotoxicity (cell viability by the MTT method) [6]: showed cytotoxicity

Molecule: (5)-7″-O-(N-acetylneuraminal)-7,4′-di-O-methylamentoflavone [Gin-Neu-1-(S)]
- inhibitory activity against the A/Guizhou/54/89 virus sialidase ([2]; final concentration of 1 μg/mL): about 50%

Molecule: (R)-7″-O-(N-acetylneuraminyl)-7,4-di-O-methylamentoflavone [Gin-Neu-1-(R)]
- IC50, A/Guizhou/54/89 virus sialidase [2]: 1 µg/mL
- inhibitory activity against the A/Guizhou/54/89 virus sialidase ([2]; final concentration of 1 μg/mL): about 50%
